In ChEMBL document CHEMBL1143963, “2D QSAR and similarity studies on cruzain inhibitors aimed at improving selectivity over cathepsin L” (Bioorg Med Chem, 2008):

Target: Cruzipain (Trypanosoma cruzi, UniProt P25779)
Assay: Inhibition of Trypanosoma cruzi cruzain

Cruzipain, sequence (P25779 whole entry): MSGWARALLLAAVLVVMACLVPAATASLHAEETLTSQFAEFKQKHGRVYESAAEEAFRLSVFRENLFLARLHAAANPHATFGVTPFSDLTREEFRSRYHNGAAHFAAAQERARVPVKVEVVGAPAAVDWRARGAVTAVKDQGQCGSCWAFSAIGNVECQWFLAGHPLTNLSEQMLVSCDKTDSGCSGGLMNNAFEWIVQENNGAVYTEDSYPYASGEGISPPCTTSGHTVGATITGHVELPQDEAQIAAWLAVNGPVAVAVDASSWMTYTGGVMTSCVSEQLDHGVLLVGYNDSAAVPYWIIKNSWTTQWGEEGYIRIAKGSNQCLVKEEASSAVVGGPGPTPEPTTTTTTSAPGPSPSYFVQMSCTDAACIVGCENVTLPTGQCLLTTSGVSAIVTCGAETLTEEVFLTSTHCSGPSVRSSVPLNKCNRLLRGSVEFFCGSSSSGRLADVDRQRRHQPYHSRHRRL

Structure (SMILES) | Ki
O=C(O)C[C@H](CCc1ccccc1)NC(=O)[C@H](Cc1ccccc1)NC(=O)OCc1ccccc1 | > 10000 nM
O=C(N[C@@H](Cc1ccccc1)C(=O)N[C@H](CCO)CCc1ccccc1)OCc1ccccc1 | > 10000 nM

The next lines start with the values.

Ki | Structure (SMILES)
> 5010 nM | O=C(N[C@@H](Cc1ccccc1)C(=O)N[C@H](CCS)CCc1ccccc1)OCc1ccccc1
4.37 nM | O=C(N[C@@H](Cc1ccccc1)C(=O)N[C@@H](Cc1ccccc1)C(=O)CS)OCc1ccccc1
145 nM | O=C(N[C@@H](Cc1ccccc1)C(=O)N[C@@H](Cc1ccccc1)C(=O)CO)OCc1ccccc1
